Measured values: patent publication US8476265B2, “Compounds-801” (AstraZeneca AB, priority 2010, dated 2013)

What was measured:
Adrenergic β2 [1] = biological target: T1, Adrenergic β2 (Homo sapiens, UniProt P07550); assay: Adrenergic β2 mediated cAMP production in H292 cells (AlphaScreen), concentration response; format: cell-based; details: for EC50: 60 min, 300 μM rolipram, read-out: β2 pEC50 (converted); for β2 Intrinsic Activity: fraction relative to the maximum activity determined for formoterol
T1 construct: Adherent H292 cells are removed from tissue culture flasks by treatment with Accutase™ cell detachment solution; endogenous in cells; host or cells: H292 cells
In short: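 H292 cells seeded overnight, pretreated 10 min with rolipram (300 μM final), then exposed to compounds 60 min at room temperature in HBSS/10 mM HEPES pH 7.4/5 mM glucose, 1% DMSO. Lysate cAMP quantified by AlphaScreen against a standard curve; four-parameter fit gives pEC50 and intrinsic activity relative to formoterol maximum.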

[2] = biological target: T2, human muscarinic acetylcholine M3 receptor (Homo sapiens, UniProt P20309); assay: Muscarinic 3 receptor binding assay ([3H]NMS competition, SPA), pIC50; details: [3H]NMS 0.1 nM, CHO-K1 cell membranes expressing human M3 receptor
T2 construct: expressed in transfected cells; host or cells: CHO-K1 (Chinese Hamster Ovary) cell membranes
In short: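 Competition of [3H]NMS (0.1 nM, quarter Kd) binding to CHO-K1 membranes expressing human M3, SPA format, in 20 mM HEPES pH 7.4, 5 mM MgCl2, 0.1% BSA, 1% DMSO. Incubated 16 h at room temperature; non-specific binding with 1 μM atropine; pIC50 from specific binding.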

Adrenergic β2 [3] = biological target: T1, Adrenergic β2; assay: Adrenergic β2 mediated cAMP production in H292 cells, single concentration 1 μM; format: cell-based; details: NCI-H292, 1 μM compound, cAMP as percentage of the maximum response generated by 1E-07M formoterol, read-out: β2 % effect @1 uM
In short: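 H292 cells pretreated with rolipram (300 μM final) 10 min, then compound at 1 μM final, 1% DMSO, 60 min at room temperature in HBSS/10 mM HEPES pH 7.4/5 mM glucose. Lysate cAMP quantified by AlphaScreen against a standard curve, as % of maximal response to 1E-07M formoterol.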

[4] = biological target: T2, human muscarinic acetylcholine M3 receptor; assay: Muscarinic 3 receptor binding assay ([3H]NMS competition, SPA), single concentration 1 μM; details: 1 μM compound; % inhibition specific [3H]-NMS binding
In short: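 CHO-K1 membranes expressing human M3 on SPA beads, competition with 0.1 nM [3H]NMS (quarter Kd) in 20 mM HEPES pH 7.4, 5 mM MgCl2, 0.1% BSA, 1% DMSO; compound at 1 μM. 16 h at room temperature. Value is % inhibition of specific binding, non-specific defined with 1 μM atropine.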

T2 sequence (P20309 whole entry): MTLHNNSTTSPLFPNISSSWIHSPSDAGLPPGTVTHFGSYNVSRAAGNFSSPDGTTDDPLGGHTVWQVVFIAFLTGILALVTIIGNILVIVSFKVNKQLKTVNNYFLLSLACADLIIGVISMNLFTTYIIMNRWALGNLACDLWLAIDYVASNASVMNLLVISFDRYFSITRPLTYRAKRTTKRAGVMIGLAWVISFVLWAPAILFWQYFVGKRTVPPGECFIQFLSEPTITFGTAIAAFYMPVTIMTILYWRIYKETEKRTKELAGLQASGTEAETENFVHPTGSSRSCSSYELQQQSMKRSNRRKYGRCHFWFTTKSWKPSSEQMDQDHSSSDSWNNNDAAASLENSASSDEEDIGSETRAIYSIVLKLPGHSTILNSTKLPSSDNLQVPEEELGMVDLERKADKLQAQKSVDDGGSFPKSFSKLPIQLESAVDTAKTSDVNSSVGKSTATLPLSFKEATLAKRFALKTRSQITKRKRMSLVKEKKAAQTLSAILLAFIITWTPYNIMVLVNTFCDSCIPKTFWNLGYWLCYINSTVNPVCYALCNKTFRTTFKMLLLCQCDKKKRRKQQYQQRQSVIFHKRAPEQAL
T1 sequence (P07550 whole entry): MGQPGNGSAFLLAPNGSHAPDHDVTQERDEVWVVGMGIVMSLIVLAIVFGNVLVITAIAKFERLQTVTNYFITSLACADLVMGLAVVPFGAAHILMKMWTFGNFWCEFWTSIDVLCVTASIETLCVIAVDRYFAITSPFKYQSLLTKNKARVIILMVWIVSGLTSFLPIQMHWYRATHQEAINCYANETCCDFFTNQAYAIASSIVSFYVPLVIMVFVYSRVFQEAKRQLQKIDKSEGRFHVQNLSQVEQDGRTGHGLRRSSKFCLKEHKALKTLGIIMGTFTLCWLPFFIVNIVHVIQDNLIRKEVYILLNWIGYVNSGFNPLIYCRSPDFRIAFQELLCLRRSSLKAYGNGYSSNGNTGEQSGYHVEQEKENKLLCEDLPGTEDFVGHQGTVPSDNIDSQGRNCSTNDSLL

## Cc1csc(C(=O)N2CCOC3(CCN(Cc4cccc(CCOCCC(=O)N(CCNCCc5ccc(O)c6c5OCC(=O)N6)C5CCCCC5)c4)CC3)C2)c1 [Example 138, N-Cyclohexyl-N-(2-(2-(5-hydroxy-3-oxo-3,4-dihydro-2H-benzo[b][1,4]oxazin-8-yl)ethylamino)ethyl)-3-(3-((4-(4-methythiophene-2-carbonyl)-1-oxa-4,9-diazaspiro[5.5]undecan-9-yl)methyl)phenethoxy)propanamide]
Adrenergic β2 [1]
  EC50: 126 nM
  β2 Intrinsic Activity: 0.9
[2]
  IC50: 0.2 nM
Adrenergic β2 [3]
  percent of formoterol maximum response at 1 µM: 92%
[4]
  inhibition at 1 µM: 100%

## O=C1COc2c(CCNCCN(C(=O)CCOCCc3cccc(CN4CCC5(CC4)CN(C(=O)CCOc4ccccc4)CCO5)c3)C3CCCCC3)ccc(O)c2N1 [Example 165, N-Cyclohexyl-N-(2-(2-(5-hydroxy-3-oxo-3,4-dihydro-2H-benzo[b][1,4]oxazin-8-yl)ethylamino)ethyl)-3-(3-((4-(3-phenoxypropanoyl)-1-oxa-4,9-diazaspiro[5.5]undecan-9-yl)methyl)phenethoxy)propanamide]
Adrenergic β2 [1]
  EC50: 79.4 nM
  β2 Intrinsic Activity: 1.1
[2]
  IC50: 1 nM
Adrenergic β2 [3]
  percent of formoterol maximum response at 1 µM: 99%
[4]
  inhibition at 1 µM: 100%

## O=C1COc2c(CCNCCN(C(=O)CCOCCc3cccc(CN4CCC5(CC4)CN(C(=O)C4COc6ccccc6O4)CCO5)c3)C3CCCCC3)ccc(O)c2N1 (stereo not shown) [Example 115, N-Cyclohexyl-3-(3-((4-(2,3-dihydrobenzo[b][1,4]dioxine-2-carbonyl)-1-oxa-4,9-diazaspiro[5.5]undecan-9-yl)methyl)phenethoxy)-N-(2-(2-(5-hydroxy-3-oxo-3,4-dihydro-2H-benzo[b][1,4]oxazin-8-yl)ethylamino)ethyl)propanamide]
Adrenergic β2 [1]
  EC50: 126 nM
  β2 Intrinsic Activity: 0.6
[2]
  IC50: 0.158 nM
Adrenergic β2 [3]
  percent of formoterol maximum response at 1 µM: 93%
[4]
  inhibition at 1 µM: 100%

## O=C1COc2c(CCNCCN(C(=O)CCOCCc3cccc(CN4CCC5(CC4)CN(C(=O)c4cnc6ccccc6n4)CCO5)c3)C3CCCCC3)ccc(O)c2N1 [Example 119, N-Cyclohexyl-N-(2-(2-(5-hydroxy-3-oxo-3,4-dihydro-2H-benzo[b][1,4]oxazin-8-yl)ethylamino)ethyl)-3-(3-((4-(quinoxaline-2-carbonyl)-1-oxa-4,9-diazaspiro[5.5]undecan-9-yl)methyl)phenethoxy)propanamide]
Adrenergic β2 [1]
  EC50: 158 nM
  β2 Intrinsic Activity: >0.9
[2]
  IC50: 2 nM
Adrenergic β2 [3]
  percent of formoterol maximum response at 1 µM: 84%
[4]
  inhibition at 1 µM: 100%

## O=C1COc2c(CCNCCN(C(=O)CCOCCc3cccc(CN4CCC5(CC4)CN(C(=O)c4cccc(Cl)c4)CCO5)c3)C3CCCCC3)ccc(O)c2N1 [Example 164, 3-(3-((4-(3-Chlorobenzoyl)-1-oxa-4,9-diazaspiro[5.5]undecan-9-yl)methyl)phenethoxy)-N-cyclohexyl-N-(2-(2-(5-hydroxy-3-oxo-3,4-dihydro-2H-benzo[b][1,4]oxazin-8-yl)ethylamino)ethyl)propanamide]
Adrenergic β2 [1]
  EC50: 79.4 nM
  β2 Intrinsic Activity: 0.8
[2]
  IC50: 2.51 nM
Adrenergic β2 [3]
  percent of formoterol maximum response at 1 µM: 96%
[4]
  inhibition at 1 µM: 99%

## O=C1COc2c(CCNCCN(C(=O)CCOCCc3cccc(CN4CCC5(CC4)CN(C(=O)C(O)c4ccccc4Cl)CCO5)c3)C3CCCCC3)ccc(O)c2N1 (stereo not shown) [Example 128, 3-(3-((4-(2-(2-Chlorophenyl)-2-hydroxyacetyl)-1-oxa-4,9-diazaspiro[5.5]undecan-9-yl)methyl)phenethoxy)-N-cyclohexyl-N-(2-(2-(5-hydroxy-3-oxo-3,4-dihydro-2H-benzo[b][1,4]oxazin-8-yl)ethylamino)ethyl)propanamide]
[2]
  IC50: 1 nM
Adrenergic β2 [3]
  percent of formoterol maximum response at 1 µM: 125%
[4]
  inhibition at 1 µM: 99%

## O=C1COc2c(CCNCCN(C(=O)CCOCCc3cccc(CN4CCC5(CC4)CN(C(=O)c4cnc(-c6ccccc6)[nH]4)CCO5)c3)C3CCCCC3)ccc(O)c2N1 [Example 145, N-Cyclohexyl-N-(2-(2-(5-hydroxy-3-oxo-3,4-dihydro-2H-benzo[b][1,4]oxazin-8-yl)ethylamino)ethyl)-3-(3-((4-(2-phenyl-1H-imidazole-5-carbonyl)-1-oxa-4,9-diazaspiro[5.5]undecan-9-yl)methyl)phenethoxy)propanamide]
Adrenergic β2 [3]
  percent of formoterol maximum response at 1 µM: 117%
[4]
  inhibition at 1 µM: 90%

## N#Cc1ccc(C(=O)N2CCOC3(CCN(Cc4cccc(CCOCCC(=O)N(CCNCCc5ccc(O)c6c5OCC(=O)N6)C5CCCCC5)c4)CC3)C2)cc1 [Example 156, 3-(3-((4-(4-Cyanobenzoyl)-1-oxa-4,9-diazaspiro[5.5]undecan-9-yl)methyl)phenethoxy)-N-cyclohexyl-N-(2-(2-(5-hydroxy-3-oxo-3,4-dihydro-2H-benzo[b][1,4]oxazin-8-yl)ethylamino)ethyl)propanamide]
Adrenergic β2 [3]
  percent of formoterol maximum response at 1 µM: 86%
[4]
  inhibition at 1 µM: 93%

## COC1CCCC(C(=O)N2CCOC3(CCN(Cc4cccc(CCOCCC(=O)N(CCNCCc5ccc(O)c6c5OCC(=O)N6)C5CCCCC5)c4)CC3)C2)C1 (stereo not shown) [Example 114, N-Cyclohexyl-N-(2-(2-(5-hydroxy-3-oxo-3,4-dihydro-2H-benzo[b][1,4]oxazin-8-yl)ethylamino)ethyl)-3-(3-((4-(3-methoxycyclohexanecarbonyl)-1-oxa-4,9-diazaspiro[5.5]undecan-9-yl)methyl)phenethoxy)propanamide]
Adrenergic β2 [3]
  percent of formoterol maximum response at 1 µM: 106%
[4]
  inhibition at 1 µM: 100%

## O=C1COc2c(CCNCCN(C(=O)CCOCCc3cccc(CN4CCC5(CC4)CN(C(=O)c4cccc(F)c4F)CCO5)c3)C3CCCCC3)ccc(O)c2N1 [Example 110, N-Cyclohexyl-3-(3-((4-(2,3-difluorobenzoyl)-1-oxa-4,9-diazaspiro[5.5]undecan-9-yl)methyl)phenethoxy)-N-(2-(2-(5-hydroxy-3-oxo-3,4-dihydro-2H-benzo[b][1,4]oxazin-8-yl)ethylamino)ethyl)propanamide]
Adrenergic β2 [3]
  percent of formoterol maximum response at 1 µM: 99%
[4]
  inhibition at 1 µM: 100%

## O=C1COc2c(CCNCCN(C(=O)CCOCCc3cccc(CN4CCC5(CC4)CN(C(=O)COCc4nc6ccccc6s4)CCO5)c3)C3CCCCC3)ccc(O)c2N1 [Example 126, 3-(3-((4-(2-(Benzo[d]thiazol-2-ylmethoxy)acetyl)-1-oxa-4,9-diazaspiro[5.5]undecan-9-yl)methyl)phenethoxy)-N-cyclohexyl-N-(2-(2-(5-hydroxy-3-oxo-3,4-dihydro-2H-benzo[b][1,4]oxazin-8-yl)ethylamino)ethyl)propanamide]
Adrenergic β2 [3]
  percent of formoterol maximum response at 1 µM: 103%
[4]
  inhibition at 1 µM: 101%

## O=C1COc2c(CCNCCN(C(=O)CCOCCc3cccc(CN4CCC5(CC4)CN(C(=O)c4[nH]nc6c4CCCC6)CCO5)c3)C3CCCCC3)ccc(O)c2N1 [Example 123, N-Cyclohexyl-N-(2-(2-(5-hydroxy-3-oxo-3,4-dihydro-2H-benzo[b][1,4]oxazin-8-yl)ethylamino)ethyl)-3-(3-((4-(4,5,6,7-tetrahydro-2H-indazole-3-carbonyl)-1-oxa-4,9-diazaspiro[5.5]undecan-9-yl)methyl)phenethoxy)propanamide]
Adrenergic β2 [3]
  percent of formoterol maximum response at 1 µM: 97%
[4]
  inhibition at 1 µM: 99%
